Reference: patent US7091340B2, “Polymorphs” (Boehringer Ingelheim Pharmaceuticals, Inc., priority 2003, dated 2006)

Experiments:
[1] = Solubility vs. temperature profile experiments; format: physicochemical; details: within the temperature range of the experiment
[2] = Microscopical solution phase transformation experiments; format: physicochemical; details: room temperature; Forms IV and VI compared

thermodynamic relationship of the two forms [1]: monotropically related
Structure (SMILES): Cc1ccc(-n2nc(C(C)(C)C)cc2NC(=O)Nc2ccc(OCCN3CCOCC3)c3ccccc23)cc1 [Form VI, 1-(5-tert-butyl-2-p-tolyl-2H-pyrazol-3-yl)-3-[4-(2-morpholin-4-yl-ethoxy)-naphthalen-1-yl]-urea]
thermodynamic stability relative to Form IV ([1]; Forms IV and VI compared): more thermodynamically stable relative to Form IV
thermodynamic stability relative to Form IV [2]: more thermodynamically stable at room temperature relative to Form IV
